The values below are quoted from earlier work in US6423719B1, “Method for treating benign prostate hyperplasia” (Upsher-Smith Laboratories, Inc., priority 1999, dated 2002).

For data set [1] the following is noted: for bioavailability / half life (plasma / elimination): in vivo.
Another data set has as its target T1, 5α-reductase (Homo sapiens, UniProt P31213).
T1 sequence (P31213 1-254): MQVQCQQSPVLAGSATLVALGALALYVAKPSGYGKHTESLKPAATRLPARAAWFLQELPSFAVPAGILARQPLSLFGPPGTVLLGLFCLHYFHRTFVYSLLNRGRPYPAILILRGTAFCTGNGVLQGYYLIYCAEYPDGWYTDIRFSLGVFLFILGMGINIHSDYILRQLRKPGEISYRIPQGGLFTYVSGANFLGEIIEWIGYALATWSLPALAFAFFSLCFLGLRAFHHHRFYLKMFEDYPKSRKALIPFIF
As to conditions: stable enzyme complex with 5α-reductase.

For data set [2] the following is noted: in vivo.

For the compound `CC(COc1ccccc1)N(CCCl)Cc1ccccc1` (stereo not drawn) [Phenoxybenzamine], in data set [1] (administered intravenously), the half life entry was “approximately 24 hours”.

Consider `CC(C)(C)NC(=O)[C@H]1CC[C@H]2[C@@H]3CC[C@H]4NC(=O)C=C[C@]4(C)[C@H]3CC[C@]12C` [Finasteride, N-(2-methyl-2-propyl)3-oxo-4-aza-5α-androst-1-ene-17β-carboxamide], for which the “turnover from the enzyme complex (t½)” value on 5α-reductase is recorded as around 30 days.

Turning to `O=C(NC1CCN(CCc2c[nH]c3ccccc23)CC1)c1ccccc1` [Indoramin], in data set [1], the bioavailability result is recorded as “less than 30%” and the “half life (plasma / elimination)” value was “about 5 hours”.

Turning to `COc1cc2nc(N3CCN(C(=O)C4CCCO4)CC3)nc(N)c2cc1OC` (stereo not drawn) [Terazosin], the water solubility result is listed as “more water soluble than prazoin”. For the same compound, in data set [1], the bioavailability entry is on record as “greater than 90%” and the “half life (plasma / elimination)” value is on record as “approximately 12 hours”.

Take `COc1cc2nc(N(C)CCCNC(=O)C3CCCO3)nc(N)c2cc1OC` (stereo not drawn) [Alfuzosin]: in data set [1], the “half life (plasma / elimination)” value is “about 5 hours”.

`Cn1c(=O)c2[nH]cnc2n(C)c1=O` [theophylline]: in data set [2], the “dose excreted unchanged in the urine” value is “about 10%”.
